Like-named read-outs stand apart in the source and are kept apart here.
Tests used:
[1] = parameters: reduction of events / relative risk reduction in stroke / reduction of risk of subsequent CHD events / relative risk reduction of major cardiovascular events: concentration or dose not given beside the values; conditions: cited from earlier work
[2] = Clinical study in healthy subjects: body weight, BMI, blood pressure, pulse; type: in vivo, human; conditions: 6 weeks
Procedure: The goal of this study was to test the safety and efficacy of an EPA-enriched oil (as described in Examples 1-3; E.I. duPont de Nemours & Co., Inc. Applied Biosciences, Wilmington, Del.), to corroborate the safety of a novel oil rich in EPA in humans prior to this product being placed on the market as a dietary supplement. This oil was tested at doses of 600 mg and 1800 mg of EPA/day as compared […] parallel arm design in approximately 120 healthy adults studied in both the fasting and post-prandial state. Safety was monitored by assessing for adverse reactions, measuring vital signs and a variety of laboratory tests including a complete metabolic profile, thyroid function tests, complete blood count, and prothrombin time.
The objective was to carry out a double blinded, randomized, placebo-controlled trial in 120 healthy subjects between 20-70 years of age over a 6 week period comparing the effects of an EPA-enriched oil provided at daily […] Specific parameters investigated included changes in body weight, heart rate, blood pressure, complete blood count, comprehensive metabolic profile, lipid and lipoprotein measures in the fasted and fed state, fatty acid profiles, and inflammation markers.
At all visits the following information was recorded: weight in pounds and kilograms, height in centimeters [“cm”] and inches, waist circumference in cm and inches, resting heart rate, systolic blood pressure, diastolic blood pressure, and a brief dietary assessment to assure continued lack of high fish intake and/or flax seed or fish oil dietary supplements. Blood pressure and pulse measurements were done 3 times on each visit after the subjects had been sitting quietly for 5 minutes.
At the time of the enrollment visit all subjects were randomly allocated into a protocol where they were required to take two capsules three times daily which contained a either: 1) olive oil placebo; 2) 600 mg/day of EPA/day; 3) 1800 mg of EPA/day; and, […]). The EPA oils are notable for their low levels of saturated fatty acids, particularly with regard to the DHA oil. Specifically, the composition of the DHA oil was as follows (g fatty acid per 100 g of oil): 14.1 g myristic acid (14:0), 10.8 g palmitic acid (16:0), 2 g palmitoleic acid (16.1), 7.4 g margaric acid (17:0), 8.4 g oleic acid (18:1), 0.1 g EPA (20:5n3), 0.9 g DPA (22:5n6) and 37.9 g DHA (22:6n3).
At visit 2, subjects were again asked to fast for 12 hours, and information about subject characteristics including all vital signs, recent illness or hospitalization, medication and supplement use, and diet information was again obtained. […] At one week and three weeks after beginning the supplements, all study subjects were contacted by telephone and asked about any adverse effects and about their compliance, and the information on their calendars with regard to capsule use and fish intake. They were also asked about whether they had experienced any fishy aftertaste or odor, and if so, how frequent were these episodes, and how unpleasant were they? The entire process as listed above was repeated after study subjects were on the study capsules for 6 weeks at the time of the final visit. Compliance and adverse events were assessed by telephone at weeks 1 and 3 by telephone and at week 6 by questionnaire and capsule count. Over 42 days, subjects were expected to have consumed a total of 252 capsules. Compliance was calculated as a percentage of consumed capsule count/expected capsule count based on the number of days the subject was in the study. All subjects were asked to stay on their capsules until they come in for their final visit. Compliance in all participants who completed the study was based on capsule count was in excess of 85%, mean 96%.
Statistical analyses compared mean absolute and percentage changes from baseline and 6 weeks in the active groups versus the placebo group. Analysis of variance, as well as paired t-test analysis were performed with SYSTAT software. […]

[3] = rat; DHA TG supplementation; cited from earlier work
[4] = EPA 1800 mg/day plus statin group (9,326), 4.6 years of follow-up

## CCC=CCC=CCC=CCC=CC/C=C\CCCC(=O)O [EPA, cis-5,8, 11, 14, 17-eicosapentaenoic acid]
[1]; 1800 mg/day of EPA
  triglyceride lowering: no significant effect
[1]; 1,050 subjects with prior myocardial infarction, EPA plus statin, p=0.033
  reduction of risk of subsequent CHD events: 27%
[1]; >98% purified EPA-ethyl esters plus statin versus statin alone
  decrease in cardiovascular events: 19%
[1]; [4]
  major cardiovascular event rate: 2.8%
  major cardiovascular events observed: 262 events
[1]; EPA plus statin versus statin-only
  sudden death rates between the groups: No significant differences
[1]; EPA plus statin versus statin-only, p=0.011
  relative risk reduction of major cardiovascular events: 19%
[1]; EPA plus statin
  effects on lipid levels: not associated with any significant effects
[1]; entire cohort, EPA plus statin
  reduction in stroke: not associated with a significant reduction
  stroke rate: 1.3%
[1]; impaired glucose tolerance (fasting glucose >110 mg/dl), EPA plus statin, p=0.048
  risk reduction: 22%
[1]; normal glucose group, EPA plus statin, not significant
  risk reduction: 18%
[1]; patients with a history of prior CHD, EPA plus statin versus statin-only, p=0.048
  reduction of events: 19%
[1]; patients with a history of prior CHD, EPA plus statin
  event rate: 8.7%
[1]; patients with a history of prior CHD
  number needed to treat: 49
[1]; subjects with prior myocardial infarction, EPA plus statin
  rate of subsequent CHD events: 15.0%
[1]; subjects with prior myocardial infarction
  number needed to treat to prevent one event: 19
[1]; subjects with prior stroke, EPA plus statin
  stroke rate: 6.8%
[1]; subjects with prior stroke, EPA plus statin, p<0.05
  relative risk reduction in stroke: 20%
[1]; subjects without CHD, EPA plus statin
  event rate: 1.4%
[1]; subjects without CHD, p 0.132 (not significant)
  risk reduction: 18%
[1]; triglyceride >150 mg/dl and HDL cholesterol <40 mg/dl, EPA plus statin, p=0.043
  reduction of CHD events: 53%
[2]; EPA 600 mg (n = 27)
  BMI, 6-Week Change (%): +0.2 ± 2.3%
  BMI, Final: 27.4 ± 3.1 kg/m^2
  Diastolic BP, Final: 80.0 ± 7.9 mm
  Pulse, 6-Week Change (%): +2.1 ± 13.6%
  Pulse, Final: 74.7 ± 12.0 beats/min
  Systolic BP, 6-Week Change (%): +3.0 ± 10.4%
  Systolic BP, Final: 121.1 ± 12.2 mm Hg
  Weight, 6-Week Change (%): +0.2 ± 2.1%
  Weight, Final: 80.4 ± 10.9 kg
[2]; EPA 1800 mg (n = 29)
  BMI, 6-Week Change (%): +1.1 ± 5.1%
  BMI, Final: 27.9 ± 5. kg/m2
  Diastolic BP, 6-Week Change (%): +1.4 ± 9.1%
  Diastolic BP, Final: 77.4 ± 9.0 mm
  Pulse, 6-Week Change (%): +2.7 ± 8.6%
  Pulse, Final: 70.9 ± 8.5 beats/min
  Systolic BP, 6-Week Change (%): +1.0 ± 7.4%
  Systolic BP, Final: 119.9 ± 13.4 mm Hg
  Weight, 6-Week Change (%): +1.3 ± 4.6%
  Weight, Final: 81.6 ± 19.2 kg

## CCC=CCC=CCC=CCC=CCC=CC/C=C\CCC(=O)O [DHA, cis-4,7, 10, 13, 16, 19-docosahexaenoic acid, reference compound]
[3]
  plasma and erythrocyte DHA content, DHA TG versus DHA EE: higher
